Experimental data: PubChem BioAssay AID602191 (Broad Institute, 2012)
Activity calls are given as the source filed them.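 How the source made its calls: active means fitted curve reaches 40% activation at a concentration no higher than the top valid tested dose; inconclusive means flat fit between 30% and 70% activation, or poor fit; inactive means uptake decrease, flat fit within 30% of zero, the rest.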 Starred links: 1 amine or outer side, 2 acyl side, 3 side chain; linkers in the order of their positions; H or OH if unused. Non-standard residues stand in square brackets, D forms with d. Residues, ends and D or L forms follow the SMILES beside them. ξ: configuration not given here. X1 = CCCCCCC[C@H](O)C[C@@H](N[*:1])[C@@H](O)C(=O)[*:2]; X3 = COc1ccc(CCCC(N[*:1])C(=O)[*:2])cc1; ξThr(3R) = C[C@@H](O)C(N)C(=O)O; NMeN = CN[C@@H](CC(N)=O)C(=O)O; X2 = C/C=C(/N[*:1])C(=O)[*:2]; Dhb = C/C=C(\N)C(=O)O; Sar = CNCC(=O)O

biological target: Scavenger receptor class B member 1 (Mus musculus) (UniProt Q61009); assay: enhancers of DiI-HDL lipid transfer via SR-BI – cell-based, ldlA[mSR-BI] CHO, DiI fluorescence, cherry-pick, dose response (AID 602191); conditions: ldlA[mSR-BI] CHO cells, 3 h, at 35 µM (top of the series);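 further: cell fluorescence from internalized DiI-labeled HDL after washing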;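 on AC40: potency of activators raising HDL uptake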;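 on activation (HDL uptake increase): 0% = median of DMSO wells and 100% = twice the DMSO signal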
Sequence (Q61009 whole entry, looked up): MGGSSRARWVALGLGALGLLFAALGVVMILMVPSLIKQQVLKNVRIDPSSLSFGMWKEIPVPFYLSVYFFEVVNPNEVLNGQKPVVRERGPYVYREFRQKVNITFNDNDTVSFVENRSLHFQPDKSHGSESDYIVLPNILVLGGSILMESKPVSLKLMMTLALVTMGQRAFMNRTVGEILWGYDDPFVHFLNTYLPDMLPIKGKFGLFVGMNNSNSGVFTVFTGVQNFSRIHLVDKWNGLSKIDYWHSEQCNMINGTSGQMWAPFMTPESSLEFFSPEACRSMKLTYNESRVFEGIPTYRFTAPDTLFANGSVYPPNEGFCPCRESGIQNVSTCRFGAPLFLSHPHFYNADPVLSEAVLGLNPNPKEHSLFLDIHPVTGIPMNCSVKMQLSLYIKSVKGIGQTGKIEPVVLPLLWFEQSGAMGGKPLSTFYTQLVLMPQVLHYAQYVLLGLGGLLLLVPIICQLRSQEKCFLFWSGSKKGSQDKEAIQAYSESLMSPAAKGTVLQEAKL

| SMILES | activation (HDL uptake increase) |
| --- | --- |
| O=C(CCNS(=O)(=O)c1cccs1)N1CCc2ccccc2C1 | -0.366% (inactive) |
| O=C(COc1ccc(C(=O)c2ccccc2)cc1)NC1CCCCC1 | -7.46% (inactive) |
| O=C(NNC(=S)Nc1cccc2ccccc12)c1cccc(Br)c1 | -30.7% (inactive) |
| CN1CCN(C(=O)C2CCCN(S(=O)(=O)c3ccc(Br)cc3)C2)CC1 (centres undefined) | -5.87% (inactive) |
| C[C@]12C[C@H](O)[C@H]3[C@@H](CCC4=CC(=O)CC[C@@]43C)[C@@H]1CC[C@@H]2C(=O)CO | 6.28% (inactive) |
| Cc1ccc(CN2CCNC(=O)C2CC(=O)N2CCN(c3ncccn3)CC2)o1 (centres undefined) | -8.96% (inactive) |
| CCO[C@H]1OC(C(=O)N2CCOCC2)=C[C@@H](c2ccccc2)[C@@H]1CCCO | -6.57% (inactive) |
| Cc1ccc(NC(=O)CSc2nc3nc(C)c(Br)cc3[nH]2)cc1F | -7.04% (inactive) |
| O=S1(=O)CCO[C@H]2Cc3ccccc3[C@H]2N1Cc1ccccc1 | -12.6% (inactive) |
| CC(Oc1ccccc1)C(=O)Nc1cccc(F)c1 (centres undefined) | 5.9% (inactive) |
| CC(C)C[C@@H](CN1CCCC1CN1C(=S)NC[C@@H]1Cc1ccc(O)cc1)N1C[C@H](Cc2ccc(O)cc2)N(CC2CCCCCC2)C1=S (some centres undefined) | 1.49% (inactive) |
| O=C(CC(c1ccccc1)c1ccco1)Nc1nccs1 (centres undefined) | 4.67% (inactive) |
| C/C=C(\C)C(=O)OC1CC(C)(C)C[C@H]2C3=CC[C@@H]4[C@@]5(C)CCC(O[C@@H]6O[C@@H](C(=O)O)[C@@H](O)C(O[C@@H]7OC[C@H](O)[C@@H](O)[C@@H]7O[C@@H]7OC(CO)C(O)[C@@H](O)[C@@H]7O)C6O[C@@H]6OC(CO)C(O)C(O)C6O)[C@@](C)(CO)[C@@H]5CC[C@]4(C)[C@]3(C)CC(O)[C@@]12CO (some centres undefined) | -2.08% (inactive) |
| C[C@H](CO)N1C[C@H](C)[C@H](CN(C)Cc2ccc(-c3ccccc3)cc2)Oc2ccc(NS(=O)(=O)c3ccccc3)cc2CC1=O | 44.6% (inactive) |
| O=C(OCc1ccccc1)c1cccc(-c2nnc(-c3ccccc3)o2)c1 | -15.9% (inactive) |
| Cn1c(=O)oc2cc(S(=O)(=O)NCCN3CCN(c4ccccc4)CC3)ccc21 | -5.09% (inactive) |
| CC1CCCC(NC(=O)CSc2nncs2)C1C (centres undefined) | -4.42% (inactive) |
| O=C1C2C(c3ccccc3)CC=CC2[C@H](c2ccc(C(F)(F)F)cc2)N1Cc1ccccc1 (some centres undefined) | -16.7% (inactive) |
| NCCCC[C@H]1CNC(=O)C(=O)N1CCc1cc(C(F)(F)F)cc(C(F)(F)F)c1 | 6.34% (inactive) |
| CC1Cc2cc(/C(O)=C3/C(=O)C(=O)N(CCN4CCOCC4)C3c3ccc([N+](=O)[O-])cc3)ccc2O1 (centres undefined) | 13.1% (inactive) |
| CN1CCN(S(=O)(=O)c2cccc(C(=O)NC3(C)CCS(=O)(=O)C3)c2)CC1 (centres undefined) | -5.92% (inactive) |
| COCCN(Cc1nnc(-c2cccs2)o1)C(=O)c1cccc(S(=O)(=O)N2CCOCC2)c1 | -7.49% (inactive) |
| CCOc1ccc(N(C(=O)c2ccc3c(c2)OCO3)C2C=CS(=O)(=O)C2)cc1 (centres undefined) | -7.61% (inactive) |
| CSCCC(NC(=O)c1ccco1)C(=O)NC1CCC(C)CC1 (centres undefined) | -3.23% (inactive) |
| CN(c1cccc(NC(=O)CN(c2ccc(C34CC5CC(CC(C5)C3)C4)cc2)S(C)(=O)=O)c1)S(C)(=O)=O | 17.6% (inactive) |
| CCc1cc(C(=O)Nc2cc(S(=O)(=O)N3CCOCC3)ccc2N2CCN(CC)CC2)sc1C | -0.114% (inactive) |
| O=C(O)CN(Cc1ccco1)S(=O)(=O)c1ccc(F)cc1 | -1.5% (inactive) |
| O=C(Cn1nc(-c2ccccc2)ccc1=O)Nc1ccc(-n2cnnn2)cc1 | 12% (inactive) |

Next, values leading:

| activation (HDL uptake increase) | SMILES |
| --- | --- |
| 7.43% (inactive) | COc1ccccc1N(C(=O)c1snc(C(N)=O)c1N)C(C(=O)NCCC(C)C)c1ccco1 (centres undefined) |
| 0.807% (inactive) | CC(OC(=O)c1ccc(S(=O)(=O)N2CCCCC2)cc1)C(=O)Nc1ccc(C(N)=O)cc1 (centres undefined) |
| -3.23% (inactive) | O=C(C[C@H]1C[C@H](C(=O)N2CCOCC2)[C@@]2(CCC3CCCC3)c3[nH]c4ccc(Cl)cc4c3CCN2C1=O)NCc1ccco1 |
| 0.791% (inactive) | CN(C)CCCNC(=O)Cc1ccc(Br)cc1 |
| 11.7% (inactive) | COc1ccc(-n2nc(C(=O)NCC(=O)O)c3ccccc3c2=O)cc1 |
| 4.6% (inactive) | O=C(CCC(=O)N1CCOc2ccc(Cl)cc21)NCCCN1CCN(Cc2ccccc2)CC1 |
| 65.3% (inactive) | C=CC[C@@H](CC(=O)N[C@@H](CO)Cc1ccccc1)C(=O)N[C@H](COC(=O)[C@@H](CC=C)CC(=O)OC(C)(C)C)Cc1c[nH]c2ccccc12 |
| -8.52% (inactive) | CN1CCN(CCC(=O)Nc2ccccc2Cl)CC1 |
| -3.43% (inactive) | O=C(COC(=O)c1cccs1)Nc1cccc(Cl)c1 |
| -7.97% (inactive) | Cc1cc(NC(=O)CN2C(=O)NC(C)(c3ccc(OC(F)F)cc3)C2=O)no1 (centres undefined) |
| 10.2% (inactive) | Cc1c(CC(=O)O)c(=O)oc2cc(OCc3ccc(F)cc3Cl)ccc12 |
| -6.79% (inactive) | COc1ccc(S(=O)(=O)N2CCOCC2)cc1NC(=O)COC(=O)C1CC2CCCC(C1)C2=O (centres undefined) |
| -9.52% (inactive) | CC(C)(C)OC(=O)NCCCC[C@H](NC(=O)c1nc[nH]c1C(=O)NC(c1ccccc1)c1ccccc1)C(=O)OC(C)(C)C |
| -2.53% (inactive) | CC(C)COC(=O)Cc1c(O)c2ccccc2[nH]c1=O |
| -20.2% (inactive) | COc1ccc(OC)c(NC(=O)c2c(NC(=O)CCC(=O)O)sc3c2CCCCC3)c1 |
| -10.4% (inactive) | CC(C)Cc1cc(C(=O)NCc2ccco2)no1 |
| -10.4% (inactive) | CCOc1ccc(CN2CCNC(=O)C2CC(=O)NCCCOc2cccnc2)cc1 (centres undefined) |
| -8.45% (inactive) | COCCCNC(=O)CCSc1ccc(Cl)cc1 |
| -12.1% (inactive) | COc1cc(-n2c(C)nc3cc(C(=O)NCC4CCCO4)ccc32)cc(OC)c1OC (centres undefined) |
| -8.63% (inactive) | COC(=O)CNC(=O)COC(=O)c1cc(Cl)cc(Cl)c1N |
| -9.73% (inactive) | CCOC(=O)C1=C(COC(=O)[C@H](C)NS(=O)(=O)c2ccc(NC(C)=O)cc2)NC(=O)NC1C (some centres undefined) |

same assay, conditions: ldlA[mSR-BI] CHO cells, DiI-HDL uptake fluorescence, 3 h

| SMILES | AC40 |
| --- | --- |
| O=C(Cc1ccc(NC(=O)C2CCN(C(=O)C3CC3)CC2)cc1)Nc1ccc(C(=O)N2CCOCC2)cc1 | > 35 µM (inactive) |
| C/C=C1\NC(=O)[C@H](CC(N)=O)N(C)C(=O)C([C@@H](C)O)NC(=O)C(CCCc2ccc(OC)cc2)NC(=O)[C@H](C(C)C)NC(=O)/C(=C\C)NC(=O)[C@H](O)[C@@H](C[C@@H](O)CCCCCCC)NC(=O)[C@H](C)NC(=O)CN(C)C(=O)[C@H](CCC(N)=O)NC1=O (stereo partly drawn) (cyclo(A[X1][X2]V[X3][ξThr(3R)][NMeN][Dhb]Q[Sar])) | 28 µM |

Results, then the molecule that gave them:

| AC40 | SMILES |
| --- | --- |
| 29.8 µM | CCOC(=O)c1ccc(NC(=O)c2nc[nH]c2C(=O)NCCCCNC(=O)c2[nH]cnc2C(=O)Nc2ccc(C(=O)OCC)cc2)cc1 |
| > 35 µM (inactive) | O=C(CC1NC(=O)NC1=O)Nc1ccc(Cl)cc1 (centres undefined) |
| > 35 µM (inactive) | CCOc1ccc(CN2CCNC(=O)C2CC(=O)NCC2CCOCC2)cc1 (centres undefined) |
